Laboratory results from patent publication US10865191B2, “Heterocyclic compounds useful as modulators of TNF alpha” (BRISTOL-MYERS SQUIBB COMPANY, priority 2015, dated 2020).
Where a name gives a salt, the structure may show the parent alone.

What follows are compounds tested against TNFα (Homo sapiens, UniProt P01375) (assay: TNF induced HEK-Blue assay (NF-kB-driven secreted alkaline phosphatase reporter)). Conditions: TNF induced HEK-Blue assay IC50 value, TNFα 0.5 ng/mL, HEK-Blue-CD40L cells, 18 h.
Type: cell-based
Summary of the method: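 HEK-Blue-CD40L cells (NF-kB-driven SEAP reporter), 20,000/well, added after 30 min pre-incubation of compound (0.004–25 μM final) with TNFα 0.5 ng/mL final at 37 °C; 18 h incubation. SEAP read with QUANTI-Blue at 620 nm; IC50 from 4-parameter logistic fit, normalized to unstimulated and stimulated DMSO controls.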

Sequence of TNFα (P01375 77-233 limits assumed): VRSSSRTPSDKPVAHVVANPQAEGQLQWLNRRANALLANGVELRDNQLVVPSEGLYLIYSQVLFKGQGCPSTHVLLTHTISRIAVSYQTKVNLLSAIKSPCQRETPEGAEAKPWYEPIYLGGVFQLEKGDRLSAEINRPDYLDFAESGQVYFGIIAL

In the case of `CCOc1ncc(-c2ccc3ncc(Cl)c(N[C@H](C)c4ccccc4F)c3c2)cn1` [Example 222, (R)-3-chloro-6-(2-ethoxypyrimidin-5-yl)-N-(1-(2-fluorophenyl)ethyl)quinolin-4-amine], the IC50 is reported as < 1000 nM.

Same assay, conditions: TNFα 0.5 ng/mL, HEK-Blue-CD40L cells, 18 h; read-out: TNF induced HEK-Blue assay IC50 value

`Cc1nc2ccc(-c3cnc(C(C)(C)O)nc3)cc2c(N[C@H](C)c2cc(C(C)O)ccc2F)c1Cl` (mixture of isomers) [Example 433, 2-(5-(3-chloro-4-(((1R)-1-(2-fluoro-5-(1-hydroxyethyl)phenyl)ethyl)amino)-2-methylquinolin-6-yl)pyrimidin-2-yl)propan-2-ol] and `Cc1nc2ccc(-c3cnc(C(C)(C)O)nc3)cc2c(N[C@H](C)c2cc(Br)ccc2F)c1Cl` [Example 316, (R)-2-(5-(4-((1-(5-bromo-2-fluorophenyl)ethyl)amino)-3-chloro-2-methylquinolin-6-yl)pyrimidin-2-yl)propan-2-ol] cannot be ordered by IC50: < 1000 nM for the first, < 1000 nM for the second.

Compared with `CC(Nc1c(Cl)cnc2cc(F)c(-c3cnc(C#N)nc3)cc12)c1ccccc1F` (stereo not drawn) [Example 255, 5-(3-chloro-7-fluoro-4-((1-(2-fluorophenyl)ethyl)amino)quinolin-6-yl)pyrimidine-2-carbonitrile], `CC(Nc1c(Cl)cnc2cc(F)c(-c3cnc(C4(O)CCC(C(=O)O)CC4)nc3)cc12)c1ccccc1F` (stereo not drawn) [Example 295, 4-(5-(3-chloro-7-fluoro-4-((1-(2-fluorophenyl)ethyl)amino)quinolin-6-yl)pyrimidin-2-yl)-4-hydroxycyclohexane-1-carboxylic acid] is lower in IC50: 1000 to 10000 nM for the first, < 1000 nM for the second. The second is the more potent here.

`C[C@@H](Nc1c(Cl)cnc2ccc(-c3cnc(C(C)(C)O)nc3)cc12)c1cc(-c2cnccn2)ccc1F` [Example 341, (R)-2-(5-(3-chloro-4-((1-(2-fluoro-5-(pyrazin-2-yl)phenyl)ethyl)amino)quinolin-6-yl)pyrimidin-2-yl)propan-2-ol] and `CC(Nc1c(Cl)cnc2ccc(-c3cnc(C(C)(C)O)nc3)cc12)c1ccncc1F` (racemic) [Example 162, 2-(5-(3-chloro-4-((1-(3-fluoropyridin-4-yl)ethyl)amino)quinolin-6-yl)pyrimidin-2-yl)propan-2-ol] cannot be ordered by IC50: < 1000 nM for the first, < 1000 nM for the second.

`Cc1nc2cc(F)c(-c3cnc(C(C)(C)O)nc3)nc2c(NC(c2ccccc2)C(F)F)c1Cl` (racemic) [Example 214, 2-(5-(7-chloro-8-((2,2-difluoro-1-phenylethyl)amino)-3-fluoro-6-methyl-1,5-naphthyridin-2-yl)pyrimidin-2-yl)propan-2-ol] and `CC(Nc1c(Cl)cnc2cc(F)c(-c3cnc(C(C)(C)O)nc3)nc12)c1ccccc1F` (racemic) [Example 209, 2-(5-(7-chloro-3-fluoro-8-((1-(2-fluorophenyl)ethyl)amino)-1,5-naphthyridin-2-yl)pyrimidin-2-yl)propan-2-ol] cannot be ordered by IC50: < 1000 nM for the first, < 1000 nM for the second.

`C[C@@H](Nc1c(Cl)cnc2ccc(Cl)cc12)c1cc(-c2cncnc2)ccc1F` [Example 545, (R)-3,6-dichloro-N-(1-(2-fluoro-5-(pyrimidin-5-yl)phenyl)ethyl)quinolin-4-amine] and `CC[C@@H](Nc1c(Cl)cnc2ccccc12)c1cc(-c2cncnc2)ccc1F` [Example 558, (R)-3-chloro-N-(1-(2-fluoro-5-(pyrimidin-5-yl)phenyl)propyl)quinolin-4-amine] cannot be ordered by IC50: < 1000 nM for the first, < 1000 nM for the second.

First: CNC(=O)c1ccc(-c2ccc3nc(C)c(F)c(Nc4cc(C)ccc4C)c3c2)cn1 [Example 186, 5-(4-((2,5-dimethylphenyl)amino)-3-fluoro-2-methylquinolin-6-yl)-N-methylpicolinamide]
Second: Cc1ccc(C)c(Nc2c(Cl)c(C)nc3ccc(-c4ccc(CN5CCNCC5)cc4)cc23)c1 [Example 7, 3-chloro-N-(2,5-dimethylphenyl)-2-methyl-6-(4-(piperazin-1-ylmethyl)phenyl)quinolin-4-amine]
The IC50 of the first is higher: 10000 to 25000 nM for the first, < 1000 nM for the second.

First: CC(Nc1c(Cl)cnc2ccc(-c3cnc(C(C)(C)O)nc3)cc12)[C@H]1CCCN(C(=O)OC(C)(C)C)C1 (mixture of isomers) [Example 60, (S)-tert-butyl 3-(1-((3-chloro-6-(2-(2-hydroxypropan-2-yl)pyrimidin-5-yl)quinolin-4-yl)amino)ethyl)piperidine-1-carboxylate]
Second: CC(C)CC(C)Nc1c(Cl)cnc2ccc(-c3cnc(C(C)(C)O)nc3)cc12 (racemic) [Example 135, 2-(5-(3-chloro-4-((4-methylpentan-2-yl)amino)quinolin-6-yl)pyrimidin-2-yl)propan-2-ol]
The IC50 of the first is higher: 1000 to 10000 nM for the first, < 1000 nM for the second.

`C[C@@H](Nc1c(Cl)cnc2cc(F)c(-c3cnc(C(C)(C)O)nc3)nc12)c1cccc(CO)c1` [Example 576, (R)-2-(5-(7-chloro-3-fluoro-8-((1-(3-(hydroxymethyl)phenyl)ethyl)amino)-1,5-naphthyridin-2-yl)pyrimidin-2-yl)propan-2-ol] and `CC(C)(O)c1ncc(-c2nc3c(N[C@@H](c4cc(C(O)CO)ccc4F)C(F)F)c(Cl)cnc3cc2F)cn1` (stereo partly drawn) [Example 492, 1-(3-((S)-1-((3-chloro-7-fluoro-6-(2-(2-hydroxypropan-2-yl)pyrimidin-5-yl)-1,5-naphthyridin-4-yl)amino)-2,2-difluoroethyl)-4-fluorophenyl)ethane-1,2-diol] cannot be ordered by IC50: < 1000 nM for the first, < 1000 nM for the second.

Compared with `CC(Nc1c(Cl)cnc2cc(F)c(-c3ccc(C(O)C4CC4)cc3)cc12)c1ccccc1F` (stereo not drawn) [Example 263, (4-(3-chloro-7-fluoro-4-((1-(2-fluorophenyl)ethyl)amino)quinolin-6-yl)phenyl)(cyclopropyl)methanol], `CC(=O)NC(CO)c1ccc(-c2ccc3ncc(Cl)c(N[C@H](C)c4ccccc4F)c3c2)cc1` (stereo partly drawn) [Example 482, N-(1-(4-(3-chloro-4-(((R)-1-(2-fluorophenyl)ethyl)amino)quinolin-6-yl)phenyl)-2-hydroxyethyl)acetamide] is higher in IC50: 1000 to 10000 nM for the first, 10000 to 25000 nM for the second.

`Cc1nc2ccc(-c3cnc(C(C)(C)O)nc3)cc2c(N[C@@H](c2cc(Br)ccc2F)C(F)F)c1Cl` [Example 320, (S)-2-(5-(4-((1-(5-bromo-2-fluorophenyl)-2,2-difluoroethyl)amino)-3-chloro-2-methylquinolin-6-yl)pyrimidin-2-yl)propan-2-ol] and `Cc1nc2ccc(-c3cnc(C(C)(C)O)nc3)cc2c(N[C@H](C)c2cc(C(C)(C)O)ccc2F)c1Cl` [Example 408, (R)-2-(5-(3-chloro-4-((1-(2-fluoro-5-(2-hydroxypropan-2-yl)phenyl)ethyl)amino)-2-methylquinolin-6-yl)pyrimidin-2-yl)propan-2-ol, TFA Salt] cannot be ordered by IC50: < 1000 nM for the first, < 1000 nM for the second.

Compared with `CC(Nc1c(Cl)cnc2ccc(-c3ccc(C(C)(C)O)cc3)cc12)c1cocn1` (racemic) [Example 206, 2-(4-(3-chloro-4-((1-(oxazol-4-yl)ethyl)amino)quinolin-6-yl)phenyl)propan-2-ol], `CC(C)C(Nc1c(Cl)cnc2ccc(-c3cnc(C(C)(C)O)nc3)cc12)c1ccccn1` (racemic) [Example 51, 2-(5-(3-chloro-4-((2-methyl-1-(pyridin-2-yl)propyl)amino)quinolin-6-yl)pyrimidin-2-yl)propan-2-ol] is lower in IC50: 10000 to 25000 nM for the first, < 1000 nM for the second.

First: C[C@@H](Nc1c(Cl)c(C(=O)Nc2cccnc2)nc2ccc(-c3cnc(C(C)(C)O)nc3)cc12)c1cc(C(N)=O)ccc1F [Example 395, (R)-4-((1-(5-carbamoyl-2-fluorophenyl)ethyl)amino)-3-chloro-6-(2-(2-hydroxypropan-2-yl)pyrimidin-5-yl)-N-(pyridin-3-yl)quinoline-2-carboxamide]
Second: C[C@@H](Nc1c(Cl)cnc2cc(F)c(-c3cnc(C(C)(C)O)nc3)cc12)c1cc(C(N)=O)ccc1F [Example 392, (R)-3-(1-((3-chloro-7-fluoro-6-(2-(2-hydroxypropan-2-yl)pyrimidin-5-yl)quinolin-4-yl)amino)ethyl)-4-fluorobenzamide]
The IC50 of the first is higher: 1000 to 10000 nM for the first, < 1000 nM for the second.

`C[C@@H](Nc1c(Cl)cnc2ccccc12)c1cc(-c2ccccc2N)ccc1F` [Example 547, (R)—N-(1-(2′-amino-4-fluoro-[1,1′-biphenyl]-3-yl)ethyl)-3-chloroquinolin-4-amine] and `COc1ccc(F)c(CNc2c(Cl)cnc3ccccc23)c1` [Example 517, 3-chloro-N-(2-fluoro-5-methoxybenzyl)quinolin-4-amine] fall in the same range of IC50: 1000 to 10000 nM for the first, 1000 to 10000 nM for the second.

`O=C(O)CC1CCN(c2ncc(-c3ccc4ncc(Cl)c(N[C@@H](c5ccccc5F)C(F)F)c4c3)cn2)CC1` [Example 78, (S)-2-(1-(5-(3-chloro-4-((2,2-difluoro-1-(2-fluorophenyl)ethyl)amino)quinolin-6-yl)pyrimidin-2-yl)piperidin-4-yl)acetic acid] and `CC(C)(O)c1ncc(-c2ccc3ncc(Cl)c(NC(c4ccccc4F)C(F)F)c3c2)cn1` (single isomer, unassigned) [Example 55a] cannot be ordered by IC50: < 1000 nM for the first, < 1000 nM for the second.

`Cc1nc2ccc(-c3cnc(C(C)(C)O)nc3)cc2c(C(O)C(C)CC(C)C)c1Cl` (single isomer, unassigned) [Example 355, 1-(3-Chloro-6-(2-(2-hydroxypropan-2-yl)pyrimidin-5-yl)-2-methylquinolin-4-yl)-2,4-dimethylpentan-1-ol] and `CCC(Nc1c(Cl)cnc2ccc(-c3cnc(C(C)(C)O)nc3)cc12)c1nc(C(=O)O)ccc1F` (stereo not drawn) [Example 128, 6-(1-((3-chloro-6-(2-(2-hydroxypropan-2-yl)pyrimidin-5-yl)quinolin-4-yl)amino)propyl)-5-fluoropicolinic acid] fall in the same range of IC50: 1000 to 10000 nM for the first, 1000 to 10000 nM for the second.

`CC1Cc2ccccc2N1Nc1c(Cl)cnc2ccc(-c3cnc(C(C)(C)O)nc3)cc12` (racemic) [Example 48, 2-(5-(3-chloro-4-((2-methylindolin-1-yl)amino)quinolin-6-yl)pyrimidin-2-yl)propan-2-ol] and `C[C@@H](Nc1c(Cl)cnc2cc(F)c(-c3cnc(C4CCN(CC(=O)O)CC4)nc3)cc12)c1ccccc1F` [Example 594, (R)-2-(4-(5-(3-chloro-7-fluoro-4-((1-(2-fluorophenyl)ethyl)amino)quinolin-6-yl)pyrimidin-2-yl)piperidin-1-yl)acetic acid] cannot be ordered by IC50: < 1000 nM for the first, < 1000 nM for the second.
